Reference: PMC10938439, “C-3 Steroidal Hemiesters as Inhibitors of 17β-Hydroxysteroid Dehydrogenase Type 10” (ACS Omega, 2024)
Where “and” joins values, the source holds several entries; their conditions need not be identical. Equal entries are not always repeated. Where two headings read alike, the source gives them in different places.

Experiments:
[1] = target: T1, 17β-HSD10 (Homo sapiens, UniProt Q99714); assay: Inhibition of 17β-estradiol to estrone transformation by purified recombinant 17β-HSD10 (NADH fluorescence); assay type: biochemical; conditions: for inhibition at 1 µM: read-out: Inhibition at 1 µM (%) (this study); for inhibition at 10 µM: read-out: Inhibition at 10 µM (%) (this study); for IC50: purified recombinant 17β-HSD10, 17β-estradiol as substrate, means ± SEM (n = 4)
T1 construct: inferred from Ni-NTA purification with imidazole elution; made in house; host or cells: E. coli BL21 (DE3)
T1 sequence (Q99714 1-261): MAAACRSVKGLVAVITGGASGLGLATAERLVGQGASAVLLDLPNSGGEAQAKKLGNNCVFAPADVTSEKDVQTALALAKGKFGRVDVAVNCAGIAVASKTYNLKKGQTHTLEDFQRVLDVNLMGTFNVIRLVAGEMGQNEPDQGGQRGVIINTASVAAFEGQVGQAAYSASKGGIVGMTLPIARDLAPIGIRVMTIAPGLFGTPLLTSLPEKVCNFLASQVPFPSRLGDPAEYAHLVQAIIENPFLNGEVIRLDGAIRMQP
Experimental: As standards, we used the known inhibitor AG18051 as the positive control and the published steroidal compounds,[18] namely, pregnenolone, testosterone, dihydrotestosterone, androsterone, epiandrosterone, and dehydroepiandrosterone.
17β-HSD10 was performed as described previously.[11] Briefly, the autoinduction and overexpression were performed at 25 °C for 18 h in the E. coli BL21 (DE3) strain. The bacterial pellet was resuspended in lysis buffer that consisted of sodium phosphate buffer ([…]), NaCl (150 mM), and imidazole (10 mM, pH 8.0) with 1 mg/mL lysozyme and benzonase (150 U/mL). cOmplete EDTA-free protease inhibitor cocktail was incubated for 20 min on ice and then sonicated (12 × 10 s pulses with 30 s pauses). The supernatant was applied to the Ni-NTA agarose resin after centrifugation (16 000g, 10 min, 4 °C). Then, the solution was incubated on ice for 1 h with gentle stirring.
The standard steroids were screened at 1 and 10 μM concentrations, and the tested compounds and standard AG18051 were screened at 10 μM concentration. For compounds with at least 50% inhibition of 17β-HSD10, the IC50 values were determined.
Steroid stock solutions (5 mM) were further diluted with DMSO to the working concentrations. DMSO was used as a vehicle control, and AG18051 was used as a control inhibitor. The enzyme activity was determined fluorometrically at 37 °C in the activity assay buffer [100 mM potassium phosphate buffer (pH 8.0)]. The general reaction mixture (200 μL per well) consisted of 17β-estradiol (25 μM, DMSO), NAD+ (500 μM, deionized water), recombinant 17β-HSD10 (45 nM), and different concentrations of inhibitor (2.2% (v/v) final concentration of DMSO as solvent). Before the addition of substrate, the reaction mixture of enzyme, cofactor, and inhibitor in the assay buffer was preincubated for 5 min at 37 °C. The increase of fluorescence (Ex/Em = 340/460 nm) due to the formation of NADH was monitored for 20 min (30 s intervals). For IC50 value determination, dose–response inhibition at 11 different concentrations of inhibitor (0.6–33.75 μM) was determined and the data were analyzed by GraphPad Prism 8.4.3 (GraphPad Software Inc.). All measurements were performed in a tetraplicate.

[2] = test system: 17β-HSD10; conditions: cited from earlier work; for Inhibition at 1 µM (%) Ayan et al. 2012: 1 µM steroid, different (cellular) assay, ref Ayan et al. 2012 (ref 18)
[3] = test system: Caco-2 cells; set-up: method as in PMID 30296546; conditions: cited from earlier work
[4] = set-up: method as in PMID 30296546; conditions: cited from earlier work
[5] = set-up: method as in PMID 30296546; conditions: cited from earlier work; remark: listed apart in the source
[6] = test system: HEK-293 cell line; set-up: method as in PMID 37458164; conditions: cited from earlier work
[7] = test system: 17β-HSD10; set-up: method as in PMID 37458164; conditions: 17β-HSD10 inhibition, literature value; cited from earlier work
[8] = test system: 17β-HSD10; set-up: method as in PMID 30297283; conditions: in vitro, recombinant enzyme, cited from earlier work
[9] = 10 μM compound, 17β-estradiol as substrate, means ± SD (n = 4)

| Compound | inhibition at 1 µM [1] [%] | inhibition at 10 µM [1] [%] | Inhibition at 1 µM (%) Ayan et al. 2012 [2] [%] | IC50 [1] | Caco-2 cell permeability (50 μM) Papp [3] | rat plasma stability, % remaining after 8 h [4] [%] | human plasma stability, % remaining after 8 h [5] [%] | further results |
| --- | --- | --- | --- | --- | --- | --- | --- | --- |
| C[C@]12CC[C@H]3[C@@H](CCC4=CC(=O)CC[C@@]43C)[C@@H]1CC[C@@H]2O [testosterone] | 10.3 ± 5.1 | 15.7 ± 3.8 | 0.0 ± 3.2 |  |  |  |  |  |
| C[C@]12CC[C@@H](O)C[C@@H]1CC[C@@H]1[C@@H]2CC[C@]2(C)C(=O)CC[C@@H]12 [androsterone] | 3.2 ± 2.2 | 0 | 7.0 ± 5.9 |  |  |  |  |  |
| C[C@]12CC[C@H](O)CC1=CC[C@@H]1[C@@H]2CC[C@]2(C)C(=O)CC[C@@H]12 [dehydroepiandrosterone] | 5.4 ± 3.7 | 6.6 ± 3.5 | 0.0 ± 3.2 |  |  |  |  |  |
| CC[C@H]1CC[C@H]2[C@@H]3CC=C4C[C@@H](OC(=O)CCC(=O)O)CC[C@]4(C)[C@H]3CC[C@]12C [Compound 14, Pregn-5-en-3β-yl Hemisuccinate] |  |  |  | 9.94 ± 0.23 µM | 5.7 × 10^–6 cm/s | 55 | 100 |  |
| CC(=O)[C@H]1CC[C@H]2[C@@H]3CCC4=C[C@@H](O)CC[C@]4(C)[C@H]3CC[C@]12C [Compound 26] |  |  |  |  |  |  |  | toxicity for HEK-293 cell line [6]: toxic |
| O=C(C(c1ccccc1)n1cnc2[nH]ncc2c1=S)N1CCCCCC1 (stereo not shown) [AG18051, 1-azepan-1-yl-2-phenyl-2-(4-thioxo-1,4-dihydropyrazolo [3–d]pyrimidin-5-yl)-ethanone] |  |  |  |  |  |  |  | IC50 [7]: 0.09 ± 0.01 µM |
| C[C@@]12CCC[C@H]1[C@@H]1CC=C3C[C@@H](OC(=O)CCC(=O)O)CC[C@]3(C)[C@H]1CC2 [Compound 21, Androst-5-en-3β-yl Hemisuccinate] |  |  |  | 7.33 ± 0.45 µM | 1.0 × 10^–4 cm/s | 88 | 99 |  |
| CC(=O)[C@H]1CC[C@H]2[C@@H]3CC=C4C[C@@H](OC(=O)CCCC(=O)O)CC[C@]4(C)[C@H]3CC[C@]12C [Compound 10, 20-Oxo-pregn-5-en-3β-yl Hemiglutarate] |  |  |  | 16.9 ± 1.33 µM |  |  |  | inhibition at 10 µM [1, 9]: ~50% |
| C[C@@]12CCC[C@H]1[C@@H]1CC=C3C[C@@H](OC(=O)CCCC(=O)O)CC[C@]3(C)[C@H]1CC2 [Compound 22, Androst-5-en-3β-yl Hemiglutarate] |  |  |  | ~6.95 µM and 6.95 µM | 1.2 × 10^–5 cm/s | 57 | 98 |  |
| COc1cccc(CN2CCN(C[C@@]3(O)CC[C@@]4(C)[C@@H](CC[C@@H]5[C@@H]4CC[C@]4(C)C(=O)CC[C@@H]54)C3)CC2)c1 [RM-532-46, (3α,5α,17α)-3-Hydroxy-3-[4-(3-methoxybenzyl)piperazin-1-yl]methylandrostan-17-one] |  |  |  |  |  |  |  | IC50 ([2]; cellular assay using HEK-293 cells): 0.55 µM; IC50 ([8]; 17β-estradiol, read-out: IC50 using 17β-estradiol as substrate): 610 µM; IC50 ([8]; allopregnanolone, read-out: IC50 using allopregnanolone as substrate): 235 µM |
| C[C@@]12CCC[C@H]1[C@@H]1CC=C3C[C@@H](OC(=O)CCCCCC(=O)O)CC[C@]3(C)[C@H]1CC2 [Compound 24, Androst-5-en-3β-yl Hemipimelate] |  |  |  | 7.17 ± 0.4 µM | 1.3 × 10^–6 cm/s | 38 | 100 |  |
| CC[C@H]1CC[C@H]2[C@@H]3CC=C4C[C@@H](OC(=O)CCCCC(=O)O)CC[C@]4(C)[C@H]3CC[C@]12C [Compound 16, Pregn-5-en-3β-yl Hemiadipate] |  |  |  | 9.29 ± 0.28 µM | 1.2 × 10^–6 cm/s | 43 | 94 |  |
| CC[C@H]1CC[C@H]2[C@@H]3CC=C4C[C@@H](OC(=O)CCCC(=O)O)CC[C@]4(C)[C@H]3CC[C@]12C [Compound 15, Pregn-5-en-3β-yl Hemiglutarate] |  |  |  | 9.01 ± 0.43 µM | 1.9 × 10^–6 cm/s | 99 | 100 |  |
| C[C@]12CCC(=O)C[C@@H]1CC[C@@H]1[C@@H]2CC[C@]2(C)[C@@H](O)CC[C@@H]12 [dihydrotestosterone] | 0 | 6.3 ± 2 | 15 ± 0.8 |  |  |  |  |  |
| C[C@]12CC[C@H](O)C[C@@H]1CC[C@@H]1[C@@H]2CC[C@]2(C)C(=O)CC[C@@H]12 [epi-androsterone, epiandrosterone] | 2 ± 4.9 | 7 ± 2.5 | 6.0 ± 1.0 |  |  |  |  |  |
| CC(=O)C1CCC2C3CC=C4CC(O)CCC4(C)C3CCC12C (stereo not shown) [pregnenolone] |  |  | 11 ± 2.6 |  |  |  |  | inhibition at 1 µM ([1]; 1 µM steroid, 17β-estradiol as substrate, means ± SD (n = 4)): 0%; inhibition at 10 µM [1, 9]: 5.9 ± 0.8% |
